Changes are numbered by the printed parent chain.
Columns and labels:
[1] = target: T1, CAC C23V/C58V/C89S/C136V/C155V/C283S (C-less) mutant (Rattus norvegicus, UniProt P97521, C136V/C155V/C23V/C283S/C58V/C89S); experiment: Transport assay in proteoliposomes, C-less CAC mutant; type: biochemical
T1 construct: made in house; host or cells: E. coli C0214
T1 sequence (P97521 1-301 C23V/C58V/C89S/C136V/C155V/C283S): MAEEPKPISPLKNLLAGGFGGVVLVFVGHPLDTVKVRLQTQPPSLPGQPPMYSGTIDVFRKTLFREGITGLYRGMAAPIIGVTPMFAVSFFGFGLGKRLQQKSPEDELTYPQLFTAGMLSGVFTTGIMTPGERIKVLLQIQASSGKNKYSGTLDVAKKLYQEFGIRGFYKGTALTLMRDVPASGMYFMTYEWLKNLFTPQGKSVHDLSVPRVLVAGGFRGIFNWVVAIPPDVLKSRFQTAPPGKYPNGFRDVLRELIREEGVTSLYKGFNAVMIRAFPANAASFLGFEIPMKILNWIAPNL
Experimental: (§1) As previously described, the pMW7-WTratCAC recombinant plasmid was used for over-expressing the rat CAC [22]. The overlap extension method was used to introduce the mutations; in the main time, NdeI and HindIII restriction sites were also added using appropriate primers. The PCR products were purified by the QIAEX II Gel Extraction Kit (QIAGEN) and digested with NdeI and HindIII and then ligated into the pMW7. All mutations were verified by DNA sequencing. The resulting plasmid constructs were transformed into E. coli C0214. Overexpression, inclusion body fraction preparation, and purification of the CAC proteins were performed as previously described.
(§2) As previously described, recombinant CAC (WT and mutants) and ORC1 proteins were used for proteoliposome formation. For experiments with native CAC, ORC1, or ANT proteins, rat liver mitochondria, or HeLa cell mitochondria, the latter for the CAC alone, were first purified using the standard procedure of cell disruption and differential centrifugation. Then proteins were extracted using 3% Triton X-100 and reconstituted as described for the recombinant proteins. The concentration of intraliposomal carnitine and ornithine was 15 mM and 30 mM, respectively, in all samples.
(§3) To test the transport activity of the CAC, 550 μL of proteoliposomes was passed through a Sephadex G-75 column to remove the external substrate. Six hundred μL of the turbid eluate was collected, divided into samples of 100 μL each, and used for transport measurement by the inhibitor-stop method. Transport was started by adding 0.1 mM [^3H]carnitine ([^3H]ornitine or [^3H]ATP) to proteoliposome samples and stopped with 1.5 mM NEM (N-ethylmaleimide) at the indicated time interval. In the control samples, NEM was added with the labeled substrate at time zero. Transport rates were measured in 10 min, i.e., within the initial linear range of the time course, at 25 °C. After terminating the transport reaction, the external substrate was removed by chromatography on the Sephadex G-75 column, and the intraliposomal radioactivity was measured. The experimental values were corrected by subtracting the controls.
Figure 3 Identification of residue responsible for itaconate inhibition. (a) Dose–response analysis of the Cys mutants of CAC for the inhibition by itaconate was performed. Transport activity of the WT (○), C136A (●), C155A (Δ), C23V/C58V/C89S/C155V/C283S (▲), and C23V/C58V/C89S/C136V/C155V/C283S (□) was measured by adding 0.1 mM [^3H]carnitine after treatment by itaconate at the indicated concentrations. Transport activity (µmol/10 min/mg) is: WT 1.80 ± 0.31; C136A 0.91 ± 0.10; C155A 1.00 ± 0.17; C23V/C58V/C89S/C155V/C283S 1.02 ± 0.159; C23V/C58V/C89S/C136V/C155V/C283S 0.71 ± 0.22. (b) Dose–response analysis of proteoliposomes reconstituted native (○) or recombinant ORC (●) incubated with itaconate at the indicated concentrations. Transport activity was measured by adding 0.1 [^3H]ornithine, respectively, as described in Materials and Methods. The data are expressed as a percent of the controls (no addition of itaconate) and are means ± SD from three independent experiments.
Figure 4 Lysine contribution to CAC inhibition by itaconate. Protection of PLP (pyridoxal phosphate) from inhibition by itaconate on C-less CAC was carried out. C-less mutant (i.e., C23V/C58V/C89S/C136V/C155V/C283S) was reconstituted into proteoliposomes and treated or not treated with 30 mM PLP for 10 min (“Contr” or “PLP” column, respectively). […]

CAC from HeLa cells = target: T2, CAC from HeLa cells (Homo sapiens, UniProt O43772); experiment: HeLa cells treated with DMI, CAC extracted from mitochondria and reconstituted for transport assay; type: cell-based; conditions: 10 mM DMI, 45 min
T2 construct: CAC from mitochondria protein extract of HeLa cells treated with 10 mM DMI or vehicle (control) was reconstituted in proteoliposomes; endogenous in cells; host or cells: HeLa cells
T2 sequence (O43772 1-301): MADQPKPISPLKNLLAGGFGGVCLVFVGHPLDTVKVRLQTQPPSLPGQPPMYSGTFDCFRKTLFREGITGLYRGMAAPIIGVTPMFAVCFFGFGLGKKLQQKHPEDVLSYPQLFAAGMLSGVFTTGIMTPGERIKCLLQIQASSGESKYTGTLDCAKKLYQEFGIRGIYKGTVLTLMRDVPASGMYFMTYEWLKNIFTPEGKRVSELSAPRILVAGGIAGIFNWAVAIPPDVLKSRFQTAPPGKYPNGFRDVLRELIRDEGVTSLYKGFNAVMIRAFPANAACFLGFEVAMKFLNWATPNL
Source text: as §2
To test the transport activity of the CAC, 550 μL of proteoliposomes was passed through a Sephadex G-75 column to remove the external substrate. […] Transport rates were measured in 10 min, i.e., within the initial linear range of the time course, at 25 °C. After terminating the transport reaction, the external substrate was removed by chromatography on the Sephadex G-75 column, and the intraliposomal radioactivity was measured. […]
Figure 10 Effect of dimethyl itaconate (DMI) on CAC. […] Thus, the transport activity was measured for 10 min by adding to proteoliposomes 0.1 mM [^3H]carnitine. […] Transport activity in the presence or absence of DTE was measured as described in Materials and Methods. […]

recombinant CAC (WT) = target: T3, recombinant CAC (WT) (Rattus norvegicus, UniProt P97521); experiment: [3H]carnitine/carnitine antiport in proteoliposomes reconstituted with recombinant WT CAC; type: biochemical; conditions: recombinant WT CAC, pH 6.5, 10 min incubation; read-out: IC50 for inhibition of transport at pH 6.5
T3 construct: made in house; host or cells: E. coli C0214
T3 sequence (P97521 1-301): T1 sequence (P97521 1-301 C23V/C58V/C89S/C136V/C155V/C283S) with V23C, V58C, S89C, V136C, V155C, S283C
Experimental: as §1, §2, §3
Figure 1 Effect of itaconate on the native and recombinant mitochondrial carnitine/acylcarnitine (CAC). Dose–response analysis for itaconate inhibition was carried out using proteoliposomes reconstituted with native (○) or recombinant (●) CAC carriers. After 10 min of itaconate incubation, transport activity was started by adding 0.1 mM [^3H]carnitine and stopped after 10 min as described in Section 2. Percent of residual activity with respect to the control, without itaconate treatment, was reported. The values are the means ± SD from three independent experiments.
Figure 2 Effect of different pH on the inhibition of CAC protein by itaconate. (a) Proteoliposomes reconstituted with the recombinant CAC were incubated at various pHs (range pH 6.5–8.5) for 10 min with 10 mM itaconate. (b) Dose–response analysis of inhibition by itaconate of the recombinant CAC at pH 6.5. was performed. Proteoliposomes were incubated for 10 min at pH 6.5 with itaconate at the indicated concentrations. In both (a,b), the transport activity was measured for 10 min by adding to proteoliposomes 0.1 mM [^3H]carnitine.

| inhibition at 30000 µM ([1]; 30 mM PLP for 10 min) [%] | reversibility of inhibition after removal of PLP by size exclusion chromatography (G-75) ([1]; 30 mM PLP, then G-75) | CAC transport activity after treatment of cells (CAC from HeLa cells) | reversal of inhibition by DTE (CAC from HeLa cells; DTE in transport assay) | IC50 (recombinant CAC (WT)) [mM] | Compound |
| --- | --- | --- | --- | --- | --- |
| ~75 | fully reversed |  |  |  | Cc1ncc(COP(=O)(O)O)c(C=O)c1O [PLP, pyridoxal 5′-phosphate, reference compound] |
|  |  | strongly inhibited | could not be reversed | 20 ± 4.9 | C=C(CC(=O)OC)C(=O)OC [dimethyl itaconate] |
